Data taken from the NIST ThermoML archive (doi:10.1021/je0341918).

Test: molar heat capacity at constant pressure; xn = mol fraction of the nth substance listed
Conditions: 101.3 kPa, Liquid, Small sample (50 mg) DSC

OCCCCO [1,4-butanediol] + O
molar heat capacity at constant pressure [J/K/mol]
Conditions | x1 = 0.0218 | x1 = 0.0478 | x1 = 0.0789 | x1 = 0.1175 | x1 = 0.1665 | x1 = 0.2305 | x1 = 0.4441 | x1 = 0.6426 | x1 = 1
293.15 K | 88.5 | 97.3 | 103.9 | 111.8 | 120.1 | 129 | 138.7 | 169.3 | 198.2
303.15 K | 89.3 | 97.7 | 104.8 | 112.7 | 121.3 | 130.4 | 140.8 | 173.3 | 203.6
313.15 K | 88.8 | 98.1 | 105.5 | 113.8 | 122.4 | 131.8 | 142.7 | 177.1 | 208.8
323.15 K | 88.9 | 98.5 | 106.2 | 114.8 | 123.5 | 133.1 | 144.6 | 180.7 | 214
333.15 K | 89.2 | 99.1 | 107.3 | 116 | 125 | 135.1 | 147.3 | 185.7 | 221.3
343.15 K | 89.1 | 99.6 | 108.3 | 117.2 | 126.5 | 137 | 149.9 | 190.8 | 228.6
353.15 K | 89.3 | 100.2 | 109.3 | 118.5 | 128.1 | 139.2 | 152.9 | 196.4 | 236.9
